Source: PubChem BioAssay AID2060344 (Molecular Pharmacology Branch, DTP, NCI, 2025)
Values joined by “and” are separate entries in the source; they are usually repeats but may differ in a detail not shown here. Equal entries are not always repeated.

System: SK-MEL-2 multi-cell spheroids, viability
Test: Anticancer human tumor SK-MEL-2 cell line growth inhibition [TAK];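 note: spheroids exposed to drugs for seven days before readout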;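 for viability, T/C: percent of DMSO vehicle control luminescence so 100% = untreated viability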
Settings: for viability, T/C: stronger effect = lower value
Description: Combinatorial screen of targeted agents with TAK-243 and ipatasertib in multi-cell type tumor spheroids
A high-throughput screen of multi-cell type tumor spheroids was designed to identify active combinations of targeted small molecules and TAK-243 or ipatasertib. Complex spheroids include a stromal component modeled by human endothelial cells (HUVEC) and fibroblasts modeled by human mesenchymal stem cells (MSCs). The concentration ranges selected for each drug and investigational agent were based upon clinically achievable concentrations if the clinical Cmax of the agent was known.
Compounds. The drugs and investigational agents: TAK-243 (785004), ipatasertib (767898), everolimus (733504), selumetinib (741078), bortezomib (756655), trametinib (758246), ixazomib (758254), vemurafenib (761431), dabrafenib (764134), sapanisertib (764658), alpelisib (765974), and copanlisib (816437), were obtained from the National Cancer Institute (NCI) Developmental Therapeutics Program Chemical Repository. The FDA-approved anticancer drug set is available from the NCI Developmental Therapeutics Program. […] The stock solutions were prepared in dimethyl sulfoxide (DMSO, Sigma-Aldrich, St. Louis, MO, cat. D2650) at 800-fold the tested concentration and stored at -70 degrees C prior to their use. All drugs and investigational agents were tested over a range starting from a high concentration at or near the clinical Cmax and decreasing in half-log increments. If the clinical Cmax for an agent had not been determined, the highest concentration tested was 10 microM.
NCI60 Cell Culture. NCI60 cell lines were obtained from the NCI Developmental Therapeutics Program Tumor Repository. For each lot of cells, the Repository performed Applied Biosystems AmpFLSTR Identifiler testing with PCR amplification to confirm consistency with the published Identifier STR profile for each cell line. Cells were kept in continuous culture for no more than 20 passages. The optimal seeding densities for each of the cell lines at each time point assessed were determined prior to performing the concentration response studies. Briefly, the NCI60 human tumor lines were grown as monolayers in RPMI 1640 medium supplemented with 10% FBS and 2 mmol/L L-glutamine.
An additional 2 lines were from the NCI60 cell line panel including melanomas, MALME-3M and SK-MEL-2. Pooled donor human umbilical vein endothelial cells (HUVEC, Lonza, cat. CC-2519) and human mesenchymal stem cells (hMSC, Lonza, cat. PT-2501) were purchased from Lonza (Walkersville, MD).
PDMR cell lines were grown in complete medium (DC medium): Dulbecco's modified Eagle's medium (DMEM)/F12 supplemented with 5% fetal bovine serum (FBS), 2 mM L-glutamine, 100 U/mL penicillin and 100 µg/ml streptomycin, 0.4 µg/ml hydrocortisone, 10 ng/ml epidermal growth factor (EGF) recombinant human protein, 24 µg/mL adenine, and 0.1 mg/mL primocin. During culture from frozen stock vials, PDMR cells were cultured in the same medium containing 10 µM Y-27632 (see Table 3). The PDCs were cultured in complete DMEM/F12 media without 10 microM Y-27632 dihydrochloride for at least two passages prior to the screen. The pooled donor HUVEC and hMSC were cultured in endothelial cell growth medium 2 (PromoCell, Heidelberg, Germany, cat. C-22011) and mesenchymal stem cell growth medium 2 (PromoCell, cat. C-28009), respectively. For all experiments, HUVEC and hMSC were used at passages </=5.
For the pre-screen, cell seeding densities were determined from a titration spanning the range from 5,000 to 313 cells per well. The mct-spheroids including 60% malignant cells, 25% HUVEC and 15% MSC dispensed as a mixture into U-bottom Ultra-Low Attachment 384-well plates (Corning, NY)
High-throughput Drug Combination Screening.
Prior to their inoculation into 384-well plates, malignant cells, HUVEC, and hMSC were removed from T flasks using TrypLE express (Thermo Fisher Scientific, cat. 12605036) and harvested by centrifugation for 5 min at 233 x g. […]

[1] = curve of first compound, second compound 0.3 µM
[2] = curve of first compound, second compound 0.949 µM
[3] = curve of first compound, second compound 3 µM
[4] = curve of first compound, second compound 9.49 µM
[5] = curve of first compound, second compound 30 µM
[6] = second compound 0.3 µM, first compound 0.000316 µM
[7] = second compound 0.3 µM, first compound 0.001 µM
[8] = second compound 0.3 µM, first compound 0.00316 µM
[9] = second compound 0.3 µM, first compound 0.01 µM
[10] = second compound 0.3 µM, first compound 0.0316 µM
[11] = second compound 0.3 µM, first compound 0.1 µM
[12] = second compound 0.949 µM, first compound 0.000316 µM
[13] = second compound 0.949 µM, first compound 0.001 µM
[14] = second compound 0.949 µM, first compound 0.00316 µM
[15] = second compound 0.949 µM, first compound 0.01 µM
[16] = second compound 0.949 µM, first compound 0.0316 µM
[17] = second compound 0.949 µM, first compound 0.1 µM
[18] = second compound 3 µM, first compound 0.000316 µM
[19] = second compound 3 µM, first compound 0.001 µM
[20] = second compound 3 µM, first compound 0.00316 µM
[21] = second compound 3 µM, first compound 0.01 µM
[22] = second compound 3 µM, first compound 0.0316 µM
[23] = second compound 3 µM, first compound 0.1 µM
[24] = second compound 9.49 µM, first compound 0.000316 µM
[25] = second compound 9.49 µM, first compound 0.001 µM
[26] = second compound 9.49 µM, first compound 0.00316 µM
[27] = second compound 9.49 µM, first compound 0.01 µM
[28] = second compound 9.49 µM, first compound 0.0316 µM
[29] = second compound 9.49 µM, first compound 0.1 µM
[30] = second compound 30 µM, first compound 0.000316 µM
[31] = second compound 30 µM, first compound 0.001 µM
[32] = second compound 30 µM, first compound 0.00316 µM
[33] = second compound 30 µM, first compound 0.01 µM
[34] = second compound 30 µM, first compound 0.0316 µM
[35] = second compound 30 µM, first compound 0.1 µM

With `CC(C)CC(NC(=O)CNC(=O)c1cc(Cl)ccc1Cl)B1OC(=O)CC(CC(=O)O)(C(=O)O)O1` (stereo unspecified) + CC(C)NCC(C(=O)N1CCN(c2ncnc3c2C(C)CC3O)CC1)c1ccc(Cl)cc1 the IC50 [1] was 17.1 nM, the IC50 [2] was 12.8 nM and the IC50 [3] was 5.07 nM. For the same molecule, the IC50 [4] was 2.04 nM, the IC50 [5] was < 0.316 nM and the viability, T/C [6] was 94.8%. It also gave a viability, T/C [7] of 94.7%, a viability, T/C [8] of 85% and a viability, T/C [9] of 64.9%. It also gave a viability, T/C [10] of 32.8%, a viability, T/C [11] of 5.51% and a viability, T/C [12] of 81.3%. It also gave a viability, T/C [13] of 76.5%, a viability, T/C [14] of 70.3% and a viability, T/C [15] of 59.5%. It also gave a viability, T/C [16] of 20.2%, a viability, T/C [17] of 6.05% and a viability, T/C [18] of 70%. It also gave a viability, T/C [19] of 67%, a viability, T/C [20] of 53.8% and a viability, T/C [21] of 43.3%. For the same molecule, the viability, T/C [22] was 20.2%, the viability, T/C [23] was 5.6% and the viability, T/C [24] was 52.6%. The viability, T/C [25] was 55.7%, the viability, T/C [26] was 44.2% and the viability, T/C [27] was 40.3%. The viability, T/C [28] was 17.9%, the viability, T/C [29] was 5.27% and the viability, T/C [30] was 47.8%. For the same molecule, the viability, T/C [31] was 47.5%, the viability, T/C [32] was 41.7% and the viability, T/C [33] was 33.5%. It also gave a viability, T/C [34] of 14.4% and a viability, T/C [35] of 4.44%.

For `CC(C)(C)c1nc(-c2cccc(NS(=O)(=O)c3c(F)cccc3F)c2F)c(-c2ccnc(N)n2)s1`, the viability, T/C (compound 0.0316 µM) was 137% and 126%, the viability, T/C (compound 0.1 µM) was 126% and 122% and the viability, T/C (compound 0.316 µM) was 82.3% and 76.3%. The viability, T/C (compound 1 µM) was 28.8% and 32%, the viability, T/C (compound 3.16 µM) was 13.3% and 16.8% and the viability, T/C (compound 10 µM) was 18.9% and 22.2%. The IC50 (curve of compound) was 631 nM and 615 nM.

For `COc1c(OCCCN2CCOCC2)ccc2c3n(c(=NC(=O)c4cnc(N)nc4)nc12)CCN3` + CC(C)NCC(C(=O)N1CCN(c2ncnc3c2C(C)CC3O)CC1)c1ccc(Cl)cc1, the IC50 [1] was 51.3 nM, the IC50 [2] was 29.4 nM and the IC50 [3] was 20.8 nM. The IC50 [4] was 14.5 nM, the IC50 [5] was 9.89 nM and the viability, T/C [8] was 92%. For the same molecule, the viability, T/C [9] was 72.5%, the viability, T/C [10] was 50.6% and the viability, T/C [11] was 45.6%. The viability, T/C (second compound 0.3 µM, first compound 0.316 µM) was 30.9%, the viability, T/C (second compound 0.3 µM, first compound 1 µM) was 19.5% and the viability, T/C [14] was 81%. It also gave a viability, T/C [15] of 65%, a viability, T/C [16] of 47.1% and a viability, T/C [17] of 38.4%. The viability, T/C (second compound 0.949 µM, first compound 0.316 µM) was 27.6%, the viability, T/C (second compound 0.949 µM, first compound 1 µM) was 21% and the viability, T/C [20] was 68.5%. For the same molecule, the viability, T/C [21] was 62.9%, the viability, T/C [22] was 40.2% and the viability, T/C [23] was 34.2%. For the same molecule, the viability, T/C (second compound 3 µM, first compound 0.316 µM) was 26.1%, the viability, T/C (second compound 3 µM, first compound 1 µM) was 19.5% and the viability, T/C [26] was 59.8%. It also gave a viability, T/C [27] of 57.6%, a viability, T/C [28] of 37% and a viability, T/C [29] of 31.4%. The viability, T/C (second compound 9.49 µM, first compound 0.316 µM) was 24.6%, the viability, T/C (second compound 9.49 µM, first compound 1 µM) was 21.1% and the viability, T/C [32] was 52.5%. The viability, T/C [33] was 50.8%, the viability, T/C [34] was 41.6% and the viability, T/C [35] was 28.8%. For the same molecule, the viability, T/C (second compound 30 µM, first compound 0.316 µM) was 21.1% and the viability, T/C (second compound 30 µM, first compound 1 µM) was 16.3%.

With `CC(C)CC(NC(=O)C(Cc1ccccc1)NC(=O)c1cnccn1)B(O)O` (stereo unspecified) the viability, T/C (compound 31.6 pM) was 117% and 109%, the viability, T/C (compound 0.0001 µM) was 96.5% and 94.3% and the viability, T/C (compound 0.000316 µM) was 101% and 98.5%. The viability, T/C (compound 0.001 µM) was 113% and 109%, the viability, T/C (compound 0.00316 µM) was 114% and 110% and the viability, T/C (compound 0.01 µM) was 88.5% and 99.6%. For the same molecule, the IC50 (curve of compound) was > 10 nM.

With `CC(C)CC(NC(=O)C(Cc1ccccc1)NC(=O)c1cnccn1)B(O)O` (stereo unspecified) + CC(C)NCC(C(=O)N1CCN(c2ncnc3c2C(C)CC3O)CC1)c1ccc(Cl)cc1 the IC50 [1] was > 10 nM, the IC50 [2] was > 10 nM and the IC50 [3] was > 10 nM. For the same molecule, the IC50 [4] was 4.24 nM, the IC50 [5] was 7.76 nM and the viability, T/C (second compound 0.3 µM, first compound 31.6 pM) was 116%. For the same molecule, the viability, T/C (second compound 0.3 µM, first compound 0.0001 µM) was 110%, the viability, T/C [6] was 104% and the viability, T/C [7] was 117%. The viability, T/C [8] was 122%, the viability, T/C [9] was 103% and the viability, T/C (second compound 0.949 µM, first compound 31.6 pM) was 120%. For the same molecule, the viability, T/C (second compound 0.949 µM, first compound 0.0001 µM) was 116%, the viability, T/C [12] was 111% and the viability, T/C [13] was 119%. For the same molecule, the viability, T/C [14] was 111%, the viability, T/C [15] was 118% and the viability, T/C (second compound 3 µM, first compound 31.6 pM) was 119%. The viability, T/C (second compound 3 µM, first compound 0.0001 µM) was 117%, the viability, T/C [18] was 98.7% and the viability, T/C [19] was 106%. It also gave a viability, T/C [20] of 114%, a viability, T/C [21] of 114% and a viability, T/C (second compound 9.49 µM, first compound 31.6 pM) of 118%. It also gave a viability, T/C (second compound 9.49 µM, first compound 0.0001 µM) of 119%, a viability, T/C [24] of 113% and a viability, T/C [25] of 109%. For the same molecule, the viability, T/C [26] was 62.5%, the viability, T/C [27] was 13.1% and the viability, T/C (second compound 30 µM, first compound 31.6 pM) was 115%. It also gave a viability, T/C (second compound 30 µM, first compound 0.0001 µM) of 123%, a viability, T/C [30] of 111% and a viability, T/C [31] of 114%. For the same molecule, the viability, T/C [32] was 119% and the viability, T/C [33] was 31.2%.

With `CCCS(=O)(=O)Nc1ccc(F)c(C(=O)c2c[nH]c3ncc(-c4ccc(Cl)cc4)cc23)c1F` the viability, T/C (compound 0.316 µM) was 105% and 130%, the viability, T/C (compound 1 µM) was 102% and 129% and the viability, T/C (compound 3.16 µM) was 103% and 113%. The viability, T/C (compound 10 µM) was 83% and 41.8%, the viability, T/C (compound 31.6 µM) was 117% and 58.2% and the viability, T/C (compound 100 µM) was 106% and 71.2%. The IC50 (curve of compound) was > 100000 nM.
